Measurements from patent publication US10519145B2, “Pyrazole-oxazolidinone compound for anti-hepatitis B virus” (Shanghai Zhimeng Biopharma Co., Ltd., priority 2016, dated 2019).

What follows are molecules tested on HBV (HepG2.2.15 cells) (assay: Anti-HBV activity experiment in vitro (HepG2.2.15, HBV DNA in supernatant, qPCR)). Conditions: Hepatitis B virus, HBV DNA in supernatant by qPCR, eighth day.
Assay type: cell-based
Method: Compound Dilution: initial concentrations of all compounds used in the anti-HBV activity experiments in vitro were 1 μM, 3-fold diluted into 8 concentrations; initial concentrations of all compounds used in the cytotoxicity assay were 100 μM, 3-fold diluted into 8 concentrations; and the mother liquor of the compound was diluted with DMSO.
Anti-HBV Activity Experiment In Vitro: HepG2.2.15 cells (4×10^4 cells/well) were seeded in 96-well plates and cultured overnight at 37° C. in 5% CO2. The next day, fresh cultures containing compounds in different concentrations were added into the culture wells. On the fifth day, the old culture medium in the culture wells was aspirated and removed. Fresh medium containing compounds in different concentrations was added. On the eighth day, supernatants in the culture wells were collected and used to extract HBV DNA in the supernatant. qPCR assay was used to detect HBV DNA content in the HepG2.2.15 supernatant.
The data analysis and the percentage of inhibition calculation: the percentage of inhibition was calculated by using the following formula: Inhibition %=[(HBV amount in DMSO control−HBV amount in sample)/HBV amount in DMSO control]×100%.

Structure (SMILES) | EC50 [µM]
O=C1COC(c2cn(-c3ccc(Br)cc3)nc2-c2ccc(F)cc2)N1CCc1cc2[nH]c(=O)[nH]c2cc1F (racemic) [example 8 racemate, 2-(1-(4-bromophenyl)-3-(4-fluorophenyl)11/-pyrazol-4-yl)-3-(2-(6-fluoro-2-carbonyl-2,3-dihydro-1H-benzo[d]imidazol-5-yl)ethyl)oxazoline-4-one] | 0.0355
O=C1COC(c2cn(-c3ccc(Br)cc3)nc2-c2ccoc2)N1CCc1ccc2[nH]c(=O)[nH]c2c1 (racemic) [example 21 racemate, 2-(1-(4-bromophenyl)-3-(furan-3-yl)-1H-pyrazol-4-yl)-3-(2-(2-oxo-2,3-dihydro-1H-benzo[d]imidazol-5-yl)ethyl)oxazolidin-4-one] | 0.0306
Nc1ccc(CCN2C(=O)COC2c2cn(-c3ccc(Br)cc3)nc2-c2ccc(F)cc2)cc1 (centres unmarked) [example 1 intermediate] | 0.0118
O=C1COC(c2cn(-c3ccc(Br)cc3)nc2-c2ccc(F)cc2)N1CCc1ccc2[nH]cnc2c1 (centres unmarked) [example 1, 3-(2-(1H-benzo[d]imidazol-5-yl)ethyl)-2-(1-(4-bromophenyl)-3-(4-fluorophenyl)-1 H-pyrazol-4-yl)oxazoline-4-one] | 0.0503
O=C1COC(c2cn(-c3ccc(Br)cc3)nc2-c2ccc(F)cc2)N1CCc1ccc2[nH]nnc2c1 (centres unmarked) [example 2, 3-(2-(1H-benzo[d][1,2,3]triazol-5-yl)ethyl)-2-(1-(4-bromophenyl)-3-(4-fluoropheny 1)-1H-pyrazol-4-yl)oxazoline-4-one] | 0.0688
O=C1CO[C@@H](c2cn(-c3ccc(Br)cc3)nc2-c2ccc(F)cc2)N1CCc1ccc2[nH]c(=O)[nH]c2c1 [example 3 S isomer, (S)-3-(2-(2-oxo-2,3-dihydro-1H-benzo[d]imidazol-5-yl)ethyl)-2-(1-(4-bromophenyl)-3-(4-fluorophenyl)-1H-pyrazol-4-yl)-oxazolidin-4-one] | > 1
N=c1[nH]c2ccc(CCN3C(=O)COC3c3cn(-c4ccc(Br)cc4)nc3-c3ccc(F)cc3)cc2[nH]1 (centres unmarked) [example 4, 3-(2-(2-amino-1H-benzo[d]imidazol-6-yl)ethyl)-2-(1-(4-bromophenyl)-3-(4-fluorophenyl)-1H-pyrazol-4-yl)oxazoline-4-one] | > 1
O=C1COC(c2cn(-c3ccc(Br)cc3)nc2-c2ccc(F)cc2)N1CCc1ccc2[nH]c(=S)[nH]c2c1 (centres unmarked) [example 5, 2-(1-(4-bromophenyl)-3-(4-fluorophenyl)-1H-pyrazol-4-yl)-3-(2-(2,3-dihydro-2-thio-1H-benzo[d]imidazol-5-yl)ethyl)oxazoline-4-one] | 0.0457
O=C1COC(c2cn(-c3ccc(Br)cc3)nc2-c2ccc(F)cc2)N1CCc1cc2nc[nH]c2cc1F (centres unmarked) [example 7, 2-(1-(4-bromophenyl)-3-(4-fluorophenyl)1H-pyrazol-4-yl)-3-(2-(5-fluoro-1H-benzo[d]imidazol-6-yl)ethyl)oxazoline-4-one] | 0.0675
O=C1CO[C@H](c2cn(-c3ccc(Br)cc3)nc2-c2ccc(F)cc2)N1CCc1cc2[nH]c(=O)[nH]c2cc1F [example 8 R isomer, (R)-2-(1-(4-bromophenyl)-3-(4-fluorophenyl)1H-pyrazol-4-yl)-3-(2-(6-fluoro-2-carbonyl-2,3-dihydro-1H-benzo[d]imidazol-5-yl)ethyl)oxazoline-4-one] | 0.0155
O=C1CO[C@@H](c2cn(-c3ccc(Br)cc3)nc2-c2ccc(F)cc2)N1CCc1cc2[nH]c(=O)[nH]c2cc1F [example 8 S isomer, (S)-2-(1-(4-bromophenyl)-3-(4-fluorophenyl)1H-pyrazol-4-yl)-3-(2-(6-fluoro-2-carbonyl-2,3-dihydro-1H-benzo[d]imidazol-5-yl)ethyl)oxazoline-4-one] | > 1
O=C1COC(c2cn(-c3ccc(Br)cc3)nc2-c2ccc(F)cc2)N1CCc1cc2nn[nH]c2cc1F (centres unmarked) [example 9, 3-(2-(5-fluoro-1H-benzo[d][1,2,3]triazol-6-yl)ethyl)-2-(1-(4-bromophenyl)-3-(4-fluorophenyl)-1H-pyrazol-4-yl)oxazoline-4-one] | 0.234
O=C1COC(c2cn(-c3ccc(Br)cc3)nc2-c2ccc(F)cc2)N1CCc1c(F)cc2[nH]cnc2c1F (centres unmarked) [example 10, 2-(1-(4-bromophenyl)-3-(4-fluorophenyl)1H-pyrazol-4-yl)-3-(2-(5,7-difluoro-1H-benzo[d]imidazol-6-yl)ethyl)oxazoline-4-one] | 0.135
O=C1COC(c2cn(-c3ccc(Br)cc3)nc2-c2ccc(F)cc2)N1CCc1c(F)cc2[nH]c(=O)[nH]c2c1F (centres unmarked) [example 11, 2-(1-(4-bromophenyl)-3-(4-fluorophenyl)1H-pyrazol-4-yl)-3-(2-(4,6-difluoro-2-carbonyl-2,3-dihydro-1H-benzo[d]imidazol-5-yl)ethyl)oxazoline-4-one] | 0.101
O=C1COC(c2cn(-c3ccc(Br)cc3)nc2-c2ccc(F)cc2)N1CCc1c(F)cc2[nH]nnc2c1F (centres unmarked) [example 12, 2-(1-(4-bromophcnyl)-3-(4-fluorophenyl)-1H-pyrazol-4-yl)-3-(2-(5,7-difluoro-1H hydrogen-benzor[d][1,2,3]triazol-6-yl)ethyl)oxazoline-4-one] | 0.223
O=C1Cc2cc(CCN3C(=O)CO[C@@H]3c3cn(-c4ccc(Br)cc4)nc3-c3ccc(F)cc3)ccc2N1 [example 13 R isomer] | 0.0144
O=C1Cc2cc(CCN3C(=O)CO[C@H]3c3cn(-c4ccc(Br)cc4)nc3-c3ccc(F)cc3)ccc2N1 [example 13 S isomer] | > 1
O=C1COC(c2cn(-c3ccc(Br)cc3)nc2-c2ccc(F)cc2)N1CCc1ccc2c(c1)C(F)(F)C(=O)N2 (centres unmarked) [example 14] | > 1
O=C1CO[C@H](c2cn(-c3ccc(F)cc3)nc2-c2ccc(F)cc2)N1CCc1ccc2[nH]c(=O)[nH]c2c1 [example 15 R isomer, (R)-3-(2-(2-oxo-2,3-dihydro-1H-benzo[d]imidazol-5-yl)ethyl)-2-(1-(4-fluorophenyl)-3-(4-fluorophenyl)-1H-pyrazol-4-yl)-oxazolidin-4-one] | 0.0445
O=C1CO[C@@H](c2cn(-c3ccc(F)cc3)nc2-c2ccc(F)cc2)N1CCc1ccc2[nH]c(=O)[nH]c2c1 [example 15 S isomer, (S)-3-(2-(2-oxo-2,3-dihydro-1H-benzo[d]imidazol-5-yl)ethyl)-2-(1-(4-fluorophenyl)-3-(4-fluorophenyl)-1H-pyrazol-4-yl)-oxazolidin-4-one] | > 1
O=C1COC(c2cn(-c3ccc(Br)cc3)nc2-c2ccc(F)cc2)N1CCc1ccc2[nH]c(=O)oc2c1 (centres unmarked) [example 16, 6-(2-{2-[1-(4-bromo-phenyl)-3-(4-fluoro-phenyl)-1-hydro-pyrazol-4-yl]-4-carbonyl-oxazoline-3-yl}-ethyl)-3-hydro-2-carbonyl-benzoxazole] | 0.0803
O=C1COC(c2cn(-c3ccc(Br)cc3)nc2-c2ccc(F)cc2)N1CCc1ccc2oc(=O)[nH]c2c1 (centres unmarked) [example 17] | 0.15
O=C1COC(c2cn(-c3ccc(Br)cc3)nc2-c2ccc(F)cc2)N1CCc1ccc2[nH]c(=O)sc2c1 (centres unmarked) [example 18, 2-(1-(4-bromophenyl)-3-(4-fluorophenyl)-1H-pyrazol-4-yl)-3-(2-(2-carbonyl-2,3-dihydrobenzo[d]thiazol-6-yl)ethyl)-4-carbonyl-oxazoline] | 0.0604
O=C1COC(c2cn(-c3ccc(Br)cc3)nc2-c2ccc(F)cc2)N1CCc1ccc2sc(=O)[nH]c2c1 (centres unmarked) [example 19, 2-(1-(4-bromophenyl)-3-(4-fluorophenyl)-1H-pyrazol-4-yl)-3-(2-(2-oxo-2,3-dihydrobenzo[d]thiazol-5-yl)ethyl)oxazoline-4-one] | 0.162
O=C1COC(c2cn(-c3ccc(Br)cc3)nc2-c2ccsc2)N1CCc1ccc2[nH]c(=O)[nH]c2c1 (centres unmarked) [example 20, 2-(1-(4-bromophenyl)-3-(thiophene-3-yl)-1H-pyrazol-4-yl)-3-(2-(2-oxo-2,3-dihydro-1H-benzo[d]imidazol-5-yl)ethyl)oxazolidin-4-one] | 0.0209
O=C1CO[C@H](c2cn(-c3ccc(Br)cc3)nc2-c2ccoc2)N1CCc1ccc2[nH]c(=O)[nH]c2c1 [example 21 R isomer, (R)-2-(1-(4-bromophenyl)-3-(furan-3-yl)-1H-pyrazol-4-yl)-3-(2-(2-oxo-2,3-dihydro-1H-benzo[d]imidazol-5-yl)ethyl)oxazolidin-4-one] | 0.011
O=C1CO[C@@H](c2cn(-c3ccc(Br)cc3)nc2-c2ccoc2)N1CCc1ccc2[nH]c(=O)[nH]c2c1 [example 21 S isomer, (S)-2-(1-(4-bromophenyl)-3-(furan-3-yl)-1H-pyrazol-4-yl)-3-(2-(2-oxo-2,3-dihydro-1H-benzo[d]imidazol-5-yl)ethyl)oxazolidin-4-one] | > 1
O=C1COC(c2cn(-c3ccc(Br)cc3)nc2-c2ccco2)N1CCc1ccc2[nH]c(=O)[nH]c2c1 (centres unmarked) [example 22, 2-(1-(4-bromophenyl)-3-(furan-2-yl)-1H-pyrazol-4-yl)-3-(2-(2-oxo-2,3-dihydro-1H-benzo[d]imidazol-5-yl)ethyl)oxazolidin-4-one] | 0.0853
COC(=O)Nc1nc2cc(CCN3C(=O)COC3c3cn(-c4ccc(Br)cc4)nc3-c3ccc(F)cc3)ccc2[nH]1 (centres unmarked) [example 23, Methyl (5-(2-(2-(I -(4-bromophenyl)-3-(4-fluorophenyl)-1H-pyrazol-4-yl)oxazoline-4-one-3-yl)ethyl)-1H-benzo[d]imidazol-2-yl)carbamate] | 0.127
